Where two headings read alike, the source gives them in different places.
How the values were obtained:
right auricle muscle = assay: Heart rates (beats) of right auricle muscle excised from rats; set-up: species or system rat; conditions: for Heart Rates of Auricle Muscles: vehicle control:100%
Experimental: Immediately after Sprague-Dawley rats (female or male) were anaesthetized with pentobarbital sodium (50 mg/kg, i.m.), the thorax was opened to excise the heart. The heart was submerged in Krebs solution, and left auricle muscle and right auricle muscle were then isolated. The left auricle muscle was placed in an organ bath for recording of contractile force, and applied with electrical field stimulation (voltage 10% higher than threshold voltage, 1 Hz frequency, 5 ms duration). In the case of right auricle muscle, which contracts spontaneously, the number of continuous beats was recorded. In this experiment, to measure contractile fore of the two auricle muscles, the organ bath was warmed to 37° C., and as a physiological solution, Krebs solution (119.8 mM NaCl, 4.6 mM KCl, 2.5 mM CaCl2, 1.2 mM MgCl2, 25 mM NaHCO3, 1.2 mM KH2PO4, 10 mM glucose, 1 mM EDTA, pH 7.4) was used. The Krebs solution (pH 7.4) was continuously saturated with a gas mixture of 95% O2 and 5% CO2. The auricle muscle was under a tension of 1 g, and Krebs solution was exchanged with fresh solution at intervals of 20 minutes while equilibrium was maintained during a recording period of 60 minutes.

[1] = test system: RAW 264.7 macrophage cells; assay: Nitric oxide production in macrophage cell stimulated by LPS (Griess); assay type: cell-based; conditions: for inhibition of production of NO: LPS-stimulated macrophage cell; for NO production by LPS in macrophage cell: LPS 1 μg/ml
Experimental: RAW 264.7 macrophage cells were plated on 100 mm culture dishes at a density of 1-2×10^5 cells. Thereafter, the said macrophage cell was incubated in DMEM medium containing 10% fetal calf serum (heat-inactivated), 100 U/ml penicillin, and […] streptomycin in a CO2 incubator. The said macrophage cell was incubated therein confluently. The said incubated macrophage cells were transferred to serum-free DMEM medium, and further incubated therein for about 24 hours. Thereafter, macrophage cells were stimulated with LPS (1 μg/ml) for about 8 hours. (In this progress, experimental group was divided into two groups, group to which the compound was administered, and group to which the compound was not.) Then, nitrite quantification was achieved by performing calorimetric reaction for produced nitrite with Griess reagent and then measuring absorbance at 550 nm, while using NaNO2 as a standard.

rat PRP = assay: Inhibition of platelet aggregation in rat PRP; assay type: cell-based; conditions: for IC50: Platelet, rat PRP; for inhibitory effect on epinephrine-induced platelet aggregation, times as strong as R-enantiomer: S versus R; for inhibitory effect on epinephrine-induced platelet aggregation, times as strong as racemic mixture: S versus racemic mixture
Experimental: Male rat (weighing 200±20 g) was anaesthetized with ether. The blood (nine volumes) was collected from heart using a plastic syringe containing 2.2% sodium citrate (one volume). The collected blood was centrifuged at 200×g for 10 minutes to give supernatant platelet-rich plasma (PRP). The residue was centrifuged again at 700×g for 30 minutes, giving platelet-poor plasma (PPP) for experiment. We used a platelet analyzer to count the number of platelet of the PRP. PRP was diluted with physiological saline solution to prepare solution containing platelets in an amount of 400-450×10^6/ml. The inhibitory effects of the compound represented by formulas 3 to 8 was evaluated by platelet aggregation analyzer, and the inhibitory effect of each compound is given as % below. That is, after PRP was incubated for 3 minutes at 37° C., the compounds or a carrier was added thereto, and after 1 min, platelet aggregation-inducing agent such as ADP, collagen, arachidonic acid (AA), U46619 or epinephrine was added thereto, followed by investigation of turbidity caused by aggregation of platelets. % Inhibition=A−B/A×100 [arithmetic formula 1] • (A: Platelet aggregation rate in group treated with an aggregation-inducing agent; • B: Platelet aggregation rate in group treated with both an aggregation-inducing agent and the enantiomers simultaneously)

[2] = test system: rat with DIC and MOF induced by endotoxin; assay: Endotoxin-induced DIC and multiple organ failure in rat; assay type: in vivo; conditions: for serum level of FDP compared with R-configuration: 10 mg/kg, FIG. 4
Experimental: Rats (Crj:CD(SD); 250±20 g) were used to test sample. Before the compound was administered, the rat was not fed. The compound was orally administered one time per day for two days in an amount of 10 mg˜25 mg/10 ml/kg/day. Distilled water (control group and LPS group) or enantiomer was administered to the rat repeatedly. After one hour, rat was anaesthetized with intramuscular injection of 50 mg/kg of pentobarbital. […] Thereafter, 50 mg/kg of pentobarbital was injected at 2 hour to the rat by intramuscular injection. Therefore, the rat was anaesthetized for all the experiment and operation.
The blood (2 ml for FDP and 6 ml for other variables) was collected from abdominal artery using a plastic syringe, into glass tube containing soy bean trypsin inhibitor and Bothrops atrox venom to measure FDP and into plastic tube containing 2.2% sodium citrate (1/10, volume/volume). The aggregated blood was centrifuged at 1200×g for 5 minutes two times. Before measurement of FDP, the supernatant was stored at freezer for at least 12 hours. Citrated blood was centrifuged at 2000×g for 30 minutes. The supernatant was used for measurement of fibrinogen and PT or APTT time. The aggregated blood collected in glass tube was disposed at the room temperature for 30 min, centrifuged to give the serum for measurement of AST and BUN.
Platelet from total citrated blood was counted by using automatic platelet counter (PLT-4, Texas International Lab.) PT or APTT time was measured by Beckton Dickenson BBL Fibrosystem (Coctkeysville, USA). FDP analysis was accomplished by using Thrombo-wellcotest kit. The said analysis was accomplished by up and down dilution method semi-quantitatively. Measurement of AST and BUN was accomplished by using Autobiochemical analyzer (Hitach 747, Japan).

LPS-injected rat = assay: Survival in LPS-injected rat; assay type: in vivo
Experimental: Rats (25˜30 g, ICR), originated from NIH cancer institute (Bethesda, Md., USA) were purchased from Korea Test Animal Corp. (Unsung, Korea). 20 mg/kg of LPS was injected to abdominal cavity of the rat. Thereafter, survival was observed every 24 hours for seven days, to investigate effect of enantiomer on the survival in LPS-injected rat. The compound represented by formula 3 to 8 was administered 30 min before the LPS injection.

[3] = Acute toxicity in rat (LD50); assay type: in vivo; conditions: Sprague-Dawley, in vivo
Experimental: Sprague-Dawley rats (six weeks) were used as test sample. Each group was comprised of two rats. […] The said emulsion was administered to two rats one times using intravenous injection and intraperitoneal injection.

[4] = ADP 2 − 5 × 10^−6 M, read-out: IC50 platelet aggregation, ADP
[5] = U46619 1.5 × 10^−6 M with threshold collagen, read-out: IC50 platelet aggregation, U46619
[6] = arachidonic acid 1 − 4 × 10^−5 M with threshold collagen, read-out: IC50 platelet aggregation, AA
[7] = collagen 2 − 5 × 10^−6 g/ml, read-out: IC50 platelet aggregation, collagen
[8] = epinephrine 1 − 4 × 10^−6 M with threshold collagen, read-out: IC50 platelet aggregation, Epinephrine
[9] = 15 mg/kg compound 30 min before LPS 20 mg/kg i.p.
[10] = ip, single intraperitoneal injection, read-out: LD50, Intraperitioneal injection
[11] = single intravenous injection, read-out: LD50, Intravenous injection

SMILES	Heart Rates of Auricle Muscles (right auricle muscle; 1 × 10^−4 M)	Heart Rates of Auricle Muscles (right auricle muscle; 1 × 10^−5 M)	Heart Rates of Auricle Muscles (right auricle muscle; 1 × 10^−6 M)	Heart Rates of Auricle Muscles (right auricle muscle; 1 × 10^−7 M)	Heart Rates of Auricle Muscles (right auricle muscle; 3 × 10^−5 M)	Heart Rates of Auricle Muscles (right auricle muscle; 3 × 10^−6 M)	Heart Rates of Auricle Muscles (right auricle muscle; 3 × 10^−7 M)	NO production by LPS in macrophage cell ([1]; compound 10 μM)	NO production by LPS in macrophage cell ([1]; compound 50 μM)	NO production by LPS in macrophage cell ([1]; compound 100 μM)	IC50 (rat PRP; [4])	IC50 (rat PRP; [5])	IC50 (rat PRP; [6])	IC50 (rat PRP; [7])	IC50 (rat PRP; [8])	inhibitory effect on epinephrine-induced platelet aggregation, times as strong as R-enantiomer (rat PRP)	inhibitory effect on epinephrine-induced platelet aggregation, times as strong as racemic mixture (rat PRP)	serum level of FDP compared with R-configuration [2]	survival after six days (LPS-injected rat; [9])	LD50 [3, 10]	also measured
Oc1cc2c(cc1O)[C@H](Cc1cccc3ccccc13)NCC2 [Formula 5]	190%	180%	175%	150%	187%	178%	162.5%	21.3 µM	14.8 µM	14.2 µM	240 µM	16 µM	5.6 µM	69 µM	0.38 µM	about six times as strong	about five times as strong	lower	100%	397 mg/kg	effect on heart rates of auricle muscles (right auricle muscle): strongly stimulated; inhibition of production of NO [1]: strongly inhibited production of NO; platelet concentration, higher than with R-configuration ([2]; 10 mg/kg oral, LPS 15 mg/kg i.v. 4 hours): 20%; survival after six days (LPS-injected rat; 30 mg/kg compound 30 min before LPS 20 mg/kg i.p.): 100%; survival at 30 mg/kg than 15 mg/kg (LPS-injected rat; LPS 20 mg/kg): increased; LD50 [3, 11]: 172 mg/kg
Oc1ccc(C[C@@H]2NCCc3cc(O)c(O)cc32)cc1 [Formula 3, (S)-6,7-Dihydroxy-1-(p-hydroxyphenylmethyl)-1,2,3,4-tetrahydroisoquinoline]	250%	180%	145%	130%	200%	150%	140%	30.5 µM	22.3 µM	18.2 µM	> 1000 µM	25 µM	9.1 µM	450 µM	1.6 µM	about nine times as strong	about five times as strong	lower	80%	450 mg/kg	inhibition of platelet aggregation induced by ADP (rat PRP; even at the concentration as high as 1×10^−3 M): did not inhibit; platelet concentration compared with R-configuration ([2]; FIG. 2): higher; serum level of AST ([2]; LPS 15 mg/kg i.v. 4 hours): at the normal level; serum level of BUN, formula 3 versus formula 4 ([2]; LPS 15 mg/kg i.v. 4 hours): no difference; survival at 30 mg/kg than 15 mg/kg (LPS-injected rat; LPS 20 mg/kg): increased; LD50 [3, 11]: 154 mg/kg
Oc1cc2c(cc1O)[C@H](Cc1ccc3ccccc3c1)NCC2 [Formula 7, (S)-6,7-Dihydroxy-1-(β-naphthylmethyl)-1,2,3,4-tetrahydroisoquinoline]	180%	175%	165%	150%	180%	170%	160%	31.2 µM	15.2 µM	9.4 µM	460 µM	61 µM	62 µM	150 µM	0.9 µM	about seventeen times as strong	about five times as strong	lower	73%	376 mg/kg	effect on heart rates of auricle muscles (right auricle muscle): strongly stimulated; inhibition of production of NO [1]: strongly inhibited production of NO; platelet concentration compared with LPS only ([2]; FIG. 2): higher; decrease of survival at 30 mg/kg versus 15 mg/kg (LPS-injected rat; LPS 20 mg/kg): 7%; LD50 [3, 11]: 184 mg/kg
